Tests used:
hepatocytes HepG2 = experiment: Inhibition of hepatic gluconeogenesis (glucose synthesis); settings: known inhibitors of gluconeogenesis; concentration not given
PTP1B = biological target: T1, PTP1B (Homo sapiens, UniProt P18031); experiment: Inhibition of human recombinant tyrosine phosphatase PTP1B (DiFMUP fluorescence); type: biochemical; settings: 1 µM; control solvent only; SD did not exceed 6%
T1 construct: purchased Sigma-Aldrich
T1 sequence (P18031 1-435): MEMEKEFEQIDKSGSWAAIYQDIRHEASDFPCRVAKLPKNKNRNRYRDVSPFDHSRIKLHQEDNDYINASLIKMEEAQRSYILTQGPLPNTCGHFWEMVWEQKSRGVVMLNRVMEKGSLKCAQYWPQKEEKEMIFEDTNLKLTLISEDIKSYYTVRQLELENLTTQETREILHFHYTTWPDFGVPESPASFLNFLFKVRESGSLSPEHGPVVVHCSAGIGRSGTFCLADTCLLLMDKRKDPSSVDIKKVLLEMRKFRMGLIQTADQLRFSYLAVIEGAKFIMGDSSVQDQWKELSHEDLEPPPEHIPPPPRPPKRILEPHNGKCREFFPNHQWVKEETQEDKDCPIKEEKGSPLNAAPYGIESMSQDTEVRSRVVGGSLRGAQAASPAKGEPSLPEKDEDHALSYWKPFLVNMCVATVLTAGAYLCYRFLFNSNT
Description: (§1) To determine the ability of the tested compounds for inhibition tyrosine phosphatases, human recombinant proteins were used (Sigma-Aldrich). The reactions were performed in black opaque 384-well microplates (PerkinElmer, Waltham, MA, USA). An equal volume of phosphatase solution in a reaction buffer (25 mM of 3-(N-morpholino)propanesulfonic acid (MOPS), 50 mM NaCl, 1 mM dithiothreitol (DTT), and 0.05% Tween-20 (pH 7.0)) was added to the solution of the tested compound on microplate. These solutions were dispensed using an automated injector. The following final concentrations of the tested phosphatases were used: PTP1B 50 ng/mL, SHP1 400 ng/mL, SHP2 50 ng/mL, LAR 5 ng/mL, and PTPRA 100 ng/mL. After 10 min, a solution of phosphate 6,8-difluoro-4-methyl (DiFMUP; Thermo Fisher Scientific) was added until its final concentration was 0.1 mM. Samples were incubated for 20 miN at 23 °C, and then the measurements of fluorescence intensity (excitation 355 and emission […]) were performed on a multifunctional plate reader POLARstar Omega (BMG Labtech, Ortenberg, Germany). Assays were performed in triplicate. For the screening assays, the final concentration of the tested compounds was 1 µM. The results were expressed as percent inhibition of untreated control (enzyme with vehicle only) for the screening tests. […] IC50 were calculated using GraphPad Prism version 6.0 software (GraphPad Software, Boston, MA, USA).

myocytes C2C12 [1] = experiment: Glucose consumption (utilization) by myocytes C2C12; type: cell-based, mouse; settings: 50 µM (highest tested concentration); 24 h
Description: The myocyte C2C12 cell line (ATCC CRL-1772), a subclone of myoblasts from mouse muscles, was cultured according to standard protocol in DMEM supplemented with 10% fetal calf serum, 100 IU/ml penicillin, and […] streptomycin at 37 °C in 5% CO2. Cells were pleated on a 96-well microplate and after reach confluence were differentiated in medium with 2% horse serum. Differentiation medium was changed every 72 h.
Differentiated myocytes C2C12 were used after 8 days of differentiation. The culture medium was changed for medium with 0.2% bovine serum albumin, 100 IU/mL penicillin, and 100 µg/mL streptomycin, and after 2 hours of incubation, the medium was changed to fresh medium containing the tested compounds. […]
Glucose concentration was determined based on enzymatic reaction with glucose oxidase and fluorometrically detection reaction end product using an AmplexRed Glucose/Glucose Oxidase Kit (Thermo Fisher Scientific) according to the manufacturer’s protocol. […] Fluorescence signal was measured at excitation of 530 nm and emission of 580 nm using a multimodal microplate reader POLARStar Omega (BMG Labtech), and glucose concentration in samples was calculated in MARS Data Analysis Software version 3.02.R2 (BMG Labtech) based on glucose standards. […] The final results were expressed as the percent of controls containing cells and solvent only.

SHP1 = biological target: T2, SHP1 (Homo sapiens, UniProt P29350); experiment: Inhibition of human recombinant tyrosine phosphatase SHP1 (DiFMUP fluorescence); type: biochemical; settings: 1 µM; control solvent only; SD did not exceed 6%
T2 construct: purchased Sigma-Aldrich
Description: as §1

myocytes C2C12 [2] = experiment: Viability of myocytes C2C12 after 24 h incubation (resazurin-based reagent); settings: 50 µM
Description: Simultaneously with glucose consumption tests, the viability of myocytes C2C12 was examined due to their prolonged 24 h incubation with vanadium complexes.
Prolonged incubation of the cells with vanadium complexes, as was the case during the study of the effect on glucose consumption, more closely corresponds to the actual conditions of clinical use, also allowing for the identification of possible cytotoxic effects. […] A Resazurin-based reagent is reduced proportionally to the metabolic activity of cells as a result of the transference of electrons from NADPH+H^+, the amount of which strictly depends on glucose metabolism.

SHP2 = biological target: T3, SHP2 (Homo sapiens, UniProt Q06124); experiment: Inhibition of human recombinant tyrosine phosphatase SHP2 (DiFMUP fluorescence); type: biochemical; settings: 1 µM; control solvent only; SD did not exceed 6%
T3 construct: purchased Sigma-Aldrich
T3 sequence (Q06124 1-593): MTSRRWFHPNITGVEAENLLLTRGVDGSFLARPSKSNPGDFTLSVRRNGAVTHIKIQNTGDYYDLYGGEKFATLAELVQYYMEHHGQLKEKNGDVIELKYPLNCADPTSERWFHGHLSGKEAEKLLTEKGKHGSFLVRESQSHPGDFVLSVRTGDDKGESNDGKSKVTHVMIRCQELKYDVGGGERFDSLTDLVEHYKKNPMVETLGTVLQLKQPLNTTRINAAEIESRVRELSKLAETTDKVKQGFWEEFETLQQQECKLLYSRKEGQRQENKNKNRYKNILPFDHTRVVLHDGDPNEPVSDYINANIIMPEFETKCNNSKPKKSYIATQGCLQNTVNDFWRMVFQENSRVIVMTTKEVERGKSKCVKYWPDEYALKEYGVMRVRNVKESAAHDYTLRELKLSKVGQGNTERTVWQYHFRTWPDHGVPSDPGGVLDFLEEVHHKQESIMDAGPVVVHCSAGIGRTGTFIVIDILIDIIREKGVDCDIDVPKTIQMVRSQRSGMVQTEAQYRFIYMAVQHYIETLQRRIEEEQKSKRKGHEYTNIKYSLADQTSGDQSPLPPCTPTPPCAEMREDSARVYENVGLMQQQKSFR
Description: as §1

LAR = biological target: T4, LAR (Homo sapiens, UniProt P10586); experiment: Inhibition of human recombinant tyrosine phosphatase LAR (DiFMUP fluorescence); type: biochemical; settings: 1 µM; control solvent only; SD did not exceed 6%
T4 sequence (P10586 1352-1607 limits assumed): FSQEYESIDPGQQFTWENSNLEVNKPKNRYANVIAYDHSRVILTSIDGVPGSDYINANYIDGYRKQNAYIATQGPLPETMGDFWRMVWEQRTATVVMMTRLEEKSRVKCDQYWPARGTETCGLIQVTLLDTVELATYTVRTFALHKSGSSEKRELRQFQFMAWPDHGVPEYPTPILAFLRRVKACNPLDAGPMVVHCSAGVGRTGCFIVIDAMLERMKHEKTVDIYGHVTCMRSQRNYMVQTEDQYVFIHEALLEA
Description: as §1

T2 sequence (P29350 whole entry): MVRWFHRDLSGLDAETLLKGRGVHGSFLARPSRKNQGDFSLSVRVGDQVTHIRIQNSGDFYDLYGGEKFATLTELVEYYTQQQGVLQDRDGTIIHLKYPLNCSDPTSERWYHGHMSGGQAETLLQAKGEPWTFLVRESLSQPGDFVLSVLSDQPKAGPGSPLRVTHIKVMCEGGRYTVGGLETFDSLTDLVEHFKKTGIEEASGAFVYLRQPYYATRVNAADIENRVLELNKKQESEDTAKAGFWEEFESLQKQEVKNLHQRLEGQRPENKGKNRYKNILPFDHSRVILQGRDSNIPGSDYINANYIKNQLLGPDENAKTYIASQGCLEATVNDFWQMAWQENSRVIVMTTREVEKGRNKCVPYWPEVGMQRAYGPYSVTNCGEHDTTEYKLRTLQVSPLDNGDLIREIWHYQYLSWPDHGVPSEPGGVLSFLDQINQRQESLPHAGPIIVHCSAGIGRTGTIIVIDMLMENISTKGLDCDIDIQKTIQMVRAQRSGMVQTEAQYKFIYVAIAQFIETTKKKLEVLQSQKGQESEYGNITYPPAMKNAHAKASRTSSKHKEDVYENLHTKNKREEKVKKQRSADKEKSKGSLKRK

Inhibition of PTP1B, percentage of inhibition of the control (PTP1B) [%]	Inhibition of SHP1, percentage of inhibition of the control (SHP1) [%]	Inhibition of SHP2, percentage of inhibition of the control (SHP2) [%]	Inhibition of LAR, percentage of inhibition of the control (LAR) [%]	SMILES	Inhibition of glucose synthesis by hepatocytes, experimental control compounds (hepatocytes HepG2)	Glucose consumption by myocytes C2C12, % of the control (myocytes C2C12 [1])	Cell viability of myocytes C2C12, % of the control (myocytes C2C12 [2]) [%]
–	–	–	–	NC(=O)c1ncn([C@@H]2O[C@H](CO)[C@@H](O)[C@H]2O)c1N [AICAR, 5-aminoimidazole-4-carboxamide riboside]	showed inhibition of glucose synthesis	–	–
24	56	57	18	COc1ccc(C(=O)NN=Cc2cc(Br)ccc2[O][V]2[O]C(c3ccc(OC)cc3)=NN=Cc3cc(Br)ccc3[O]2)cc1 [VC055, [V(L11)(HL11)]]	–	No statistically significant effect	127 ± 5

From publication PMC10892041, “Vanadium Complexes with Thioanilide Derivatives of Amino Acids: Inhibition of Human Phosphatases and Specificity in Various Cell Models of Metabolic Disturbances” (Pharmaceuticals, 2024)
